According to PMC7692634, “Structural Basis of Inhibition of the Pioneer Transcription Factor NF-Y by Suramin” (Cells, 2020):

Columns and labels:
[1] = molecular target: T1, NF-Yd (NF-YB/NF-YC histone fold domain dimer, YB/YCmd) (Homo sapiens, UniProt P25208+Q13952); test: ITC; assay type: binding
T1 construct: gene NFYB; minimal histone fold domains, NF-YB aa 49-141 with N-terminal 6His (thrombin-cleaved), NF-YC aa 27-120; coexpressed in E. coli BL21(DE3)
T1 sequence (P25208 51-143): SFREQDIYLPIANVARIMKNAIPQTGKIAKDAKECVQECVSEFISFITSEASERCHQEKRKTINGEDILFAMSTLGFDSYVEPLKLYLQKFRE
T1 sequence (Q13952 27-120): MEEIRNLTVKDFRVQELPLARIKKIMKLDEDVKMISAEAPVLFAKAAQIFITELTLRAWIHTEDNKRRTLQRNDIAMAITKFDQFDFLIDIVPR

[2] = molecular target: T2, NF-Yt (NF-Ymd, minimal domain NF-Y trimer) (Homo sapiens, UniProt P25208+Q13952); test: STD NMR; EMSA inhibition of DNA binding; conditions: STD NMR: 25 µM protein, 1 mM suramin, 10 mM Tris-DCl pH 8, 150 mM NaCl, 25 °C; EMSA: 40 nM protein, 20 nM HSP70 CCAAT probe, pH 7.5, 30 °C
T2 construct: gene NFYB; minimal domains NF-YB 49-141, NF-YC 27-120, NF-YA 262-332 with C-terminal 6His (thrombin-cleaved); coexpressed in E. coli BL21(DE3); with Nuclear transcription factor Y subunit alpha

[3] = molecular target: T3, NF-Yd/YA (reconstituted NF-Y trimer with YA3) (Homo sapiens, UniProt P25208+Q13952); test: EMSA inhibition of DNA binding; conditions: 40 nM protein, 20 nM Cy5 HSP70 CCAAT probe, pH 7.5, 5 mM MgCl2, 30 °C; suramin 50 and 100 µM
T3 construct: gene NFYB; NF-Yd (NF-YB 49-141/NF-YC 27-120, His-tag cut) mixed with separately purified NF-YA aa 239-347, C-terminal His-tag; E. coli BL21(DE3); with Nuclear transcription factor Y subunit alpha
T3 sequence (P23511 239-347 partner, one chain of several): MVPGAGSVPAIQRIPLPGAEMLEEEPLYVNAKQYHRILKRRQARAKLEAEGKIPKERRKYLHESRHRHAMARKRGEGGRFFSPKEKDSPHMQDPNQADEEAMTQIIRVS

T2 sequence (P23511 262-332 partner, one chain of several): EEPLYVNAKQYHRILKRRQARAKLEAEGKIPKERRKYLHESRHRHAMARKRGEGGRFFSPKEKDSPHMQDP

Kd [1]: 2900 ± 700 nM
SMILES: Cc1ccc(C(=O)Nc2ccc(S(=O)(=O)O)c3cc(S(=O)(=O)O)cc(S(=O)(=O)O)c23)cc1NC(=O)c1cccc(NC(=O)Nc2cccc(C(=O)Nc3cc(C(=O)Nc4ccc(S(=O)(=O)O)c5cc(S(=O)(=O)O)cc(S(=O)(=O)O)c45)ccc3C)c2)c1 [suramin]
STD NMR; EMSA inhibition of DNA binding [2]: demonstrates the interaction of the compound with both the dimer and the trimer
EMSA inhibition of DNA binding [3]: suramin addition substantially decreased the formation of NF-Y-bound DNA complexes, in a dose-dependent manner
